Experimental data reported in ChEMBL document CHEMBL4371005, “Overview of the Development of DprE1 Inhibitors for Combating the Menace of Tuberculosis” (J Med Chem, 2018).
Values after ≈ are worked out from the molar mass of the structure shown.

Tests used:
[1] = tested on: Mycobacterium tuberculosis; assay: Antimycobacterial activity against Mycobacterium tuberculosis H37Rv harboring deltarv3406 dprE1 L368P after overnight incubation by REMA method; format: functional
[2] = tested on: Mycobacterium tuberculosis; assay: Antimycobacterial activity against Mycobacterium tuberculosis H37Rv harboring rv3405c mutant TRC4 after overnight incubation by REMA method; format: functional

SMILES	MIC99 [1]	MIC99 [2]
COc1ccc(CNc2nc3cc(C(F)(F)F)ccc3nc2C(=O)O)cc1	12.5 µM (≈ 4.72 µg/mL)	6.3 µM (≈ 2.38 µg/mL)
O=C(O)c1nc2ccc(C(F)(F)F)cc2nc1NCc1ccc(C(F)(F)F)cc1	25 µM (≈ 10.4 µg/mL)	12.5 µM (≈ 5.19 µg/mL)
O=C(O)c1nc2ccc(C(F)(F)F)cc2nc1NCc1ccc(Cl)cc1	25 µM (≈ 9.54 µg/mL)	12.5 µM (≈ 4.77 µg/mL)
CCOc1ccc(CNc2nc3cc(C(F)(F)F)ccc3nc2C(=O)O)cc1	12.5 µM (≈ 4.89 µg/mL)	6.3 µM (≈ 2.47 µg/mL)
CCOC(=O)c1nc2ccc(C(F)(F)F)cc2nc1NCc1ccc(OC)cc1	12.5 to 25 µM	6.3 µM (≈ 2.55 µg/mL)
N#Cc1ccc(CNc2nc3cc(C(F)(F)F)ccc3nc2C(=O)O)cc1	100 µM (≈ 37.2 µg/mL)	50 µM (≈ 18.6 µg/mL)
O=C(O)c1nc2ccc(C(F)(F)F)cc2nc1NCc1ccc(F)cc1	25 µM (≈ 9.13 µg/mL)	25 µM (≈ 9.13 µg/mL)
COc1ccc(CNc2nc3cc(C(F)(F)F)ccc3nc2C(=O)O)cc1F	25 µM (≈ 9.88 µg/mL)	12.5 µM (≈ 4.94 µg/mL)
